Values quoted from earlier work in US6552066B1, “Protein tyrosine kinase inhibitors for treating osteoarthritis” (priority 1995, dated 2003).

Legend:
[1] = system: bovine cartilage explant; conditions: cited from earlier work
[2] = system: progression of osteoarthritis; conditions: animals; cited from earlier work

NC1=N/C(=C2/CCNC(=O)c3[nH]ccc32)C(=O)N1 [Z-debromohymenialdisine]
inhibition of cartilage degradation in the bovine cartilage explant assay [1]: inhibit cartilage degradation
progression of osteoarthritis [2]: slows the progression of osteoarthritis
